Measurements published in patent publication US6413998B1, “Compositions and methods for treating bone deficit conditions” (Osteoscreen, Inc., priority 1995, dated 2002).

Legend:
[1] = system: BMP2 promoter; experiment: BMP-2 promoter luciferase reporter high throughput screening in 2T3-BMP-2-LUC cells; type: cell-based, mouse; details: at concentration of maximal activity, about 3 μM
Excerpt: A rapid throughput screening test for compounds capable of stimulating expression of a reporter gene linked to a BMP promoter (a surrogate for the production of bone morphogenetic factors that are endogenously produced) is described in U.S. application Ser. No. 08/458,434, filed Jun. 2, 1995, the entire contents of which are incorporated herein by reference. This assay is also described as a portion of a study of immortalized murine osteoblasts (derived from a mouse expressing a transgene composed of a BMP2 promoter driving expression of T-antigen) in Ghosh-Choudhery, N. et al. Endocrinology (1996) 137:331-39. […]
Briefly, the assay utilizes cells transformed permanently or transiently with constructs in which the promoter of a bone morphogenetic protein, specifically BMP2 or BMP4, is coupled to a reporter gene, typically luciferase. These transformed cells are then evaluated for the production of the reporter gene product; compounds that activate the BMP promoter will drive production of the reporter protein, which can be readily assayed. […]
The treated cells were incubated for 24 hours at 37° C. and 5% CO2. […] Luminescence was measured on an automated 96-well luminometer, and was expressed as either picograms of luciferase activity per well or as picograms of luciferase activity per microgram of protein. […]

[2] = system: ICR Swiss white mice; experiment: In vivo assay of effects of compounds on murine calvarial bone growth; parameters: species or system mouse; details: compared to vehicle control; subcutaneous injection over right calvaria, day 14
Procedure: Male ICR Swiss white mice, aged 4-6 weeks and weighing 13-26 gm, are employed, using 4-5 mice per group. The calvarial bone growth assay is performed as described in PCT application WO 95/24211, incorporated by reference. Briefly, the test compound or appropriate control vehicle is injected into the subcutaneous tissue over the right calvaria of normal mice. Typically, the control vehicle is the vehicle in which the compound was solubilzed, and is PBS containing 5% DMSO or is PBS containing Tween (2 μl/10 ml). The animals are sacrificed on day 14 and bone growth measured by histomorphometry. Bone samples for quantitation are cleaned from adjacent tissues and fixed in 10% buffered formalin for 24-48 hours, decalcified in 14% EDTA for 1-3 weeks, processed through graded alcohols, and embedded in paraffin wax. Three to five μm sections of the calvaria are prepared, and representative sections are selected for histomorphometric assessment of the effects on bone formation and bone resorption. Sections are measured by using a camera lucida attachment to trace directly the microscopic image onto a digitizing plate. Bone changes are measured on sections cut 200 μm apart, over 4 adjacent 1×1 mm fields on both the injected and noninjected sides of the calvaria. […]

[3] = system: TMC-23 cells; experiment: Alkaline phosphatase (ALP) activity in chondrogenic cell line TMC-23; type: cell-based, mouse; details: day 2, 10^-9 M, compared to vehicle control
Procedure: For measurement of alkaline phosphatase (ALP) activity, the technique of LF Bonewald et al. J Biol Chem (1992) 267:8943-49, was employed. Briefly, TMC-23 cells were plated in 96 well microtiter plates in DMEM containing 10% FCS at 4×10^3 cells/well. Two days after plating, the cells were confluent and the medium was replaced with fresh medium containing 10% FCS and different concentrations of compounds or recombinant BMP-2. After an additional 2 or 5 days incubation, the plates were washed twice with PBS, and then lysing solution (0.05% Triton X-100) was added (100 μl/well). The cells were lysed by three freeze-thaw cycles of −70° C. (30 min), followed by 37° C. (30 min with shaking). Twenty microliters of cell lysates were assayed with 80 μl of 5 mM p-nitrophenol phosphate in 1.5 M 2-amino-2-methyl-propanol buffer, pH 10.3 (Sigma ALP kit, Sigma Chemical Co., St. Louis, Mo.) for 10 min at 37° C. The reaction was stopped by the addition of 100 μl of 0.5 M NaOH. The spectrophotometric absorbance at 405 nm was compared to that of p-nitrophenol standards to estimate ALP activity in the samples. The protein content of the cell lysates was determined by the Bio-Rad protein assay kit (Bio-Rad, Hercules, Calif.). Specific activity was calculated using these two parameters.

## c1ccc(N=NC2=NNc3ccccc3S2)cc1 [Compound 59-0008, 3-phenylazo-1H-4,1,2-benzothiadiazine]
[1]
  response (luciferase luminescence): approximately 175 light emission units
[2]
  increase in width of new calvarial bone: 4 fold
[3]
  increase of ALP levels: approximately 3 fold
